In the supplement of paper PMC10307832 one finds relative viability data, which are given here for 7 cell lines.

Experiment in all cases: relative viability (nuclei count vs DMSO), 5 days (fraction); higher = more cells survive
Compound in one experiment: CS(=O)(=O)c1ccc(-c2cnc(N)c(C(=O)Nc3ccccc3)n2)cc1 [VE-821]
The essentials: (§1)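 Nuclei counted with MetaXpress define viability as the ratio of treated to vehicle wells, given as a median across plates. The lung cancer cell lines were in 1536-well plates, pinned with five √10-spaced library-drug doses and imaged at 4× after 5 days and Hoechst staining. Plates passed with control CV below 25% and at least one doubling.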

Compound in the next experiment: CS(=O)(=O)c1ccc(C(=O)Nc2ccc(Cl)c(-c3ccccn3)c2)c(Cl)c1 [Vismodegib]
The essentials:
as §1

Compound in another experiment: N#CC[C@H](C1CCCC1)n1cc(-c2ncnc3[nH]ccc23)cn1 [Ruxolitinib]
The method in brief: as §1

Compound in the experiment “Vismodegib + Dasatinib”: CS(=O)(=O)c1ccc(C(=O)Nc2ccc(Cl)c(-c3ccccn3)c2)c(Cl)c1 [Vismodegib] + Cc1nc(Nc2ncc(C(=O)Nc3c(C)cccc3Cl)s2)cc(N2CCN(CCO)CC2)n1 [Dasatinib] (partner 0.075 µM)
The essentials: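 Relative viability divides the nuclei count in treated wells by that in vehicle wells. Lung cancer cell lines were seeded in 1536-well plates, dosed by pin tool the next day, and fixed and stained after 5 days in one step with final 0.05% Triton X-100, 1% formaldehyde and 1 ug/ml Hoechst. Dosing was a single drug or a fixed anchor-drug dose plus five library-drug doses (not always all listed) in √10 steps, and values are medians of duplicate plates imaged at 4×.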

As to NCI-H1437, the relative viability stood at 1.03 with VE-821 (0.08 µM); 0.97 in the experiment with VE-821 (0.253 µM); 0.988 with VE-821 (0.8 µM); 1.01 with VE-821 (2.53 µM); 0.956 in the experiment with VE-821 (8 µM); 0.951 in the experiment with Vismodegib (0.08 µM). Besides, the relative viability came out at 0.967 with Vismodegib (0.253 µM); 1.01 in the experiment with Vismodegib (0.8 µM); 0.964 with Vismodegib (2.53 µM); 0.999 with Vismodegib (8 µM); 1.09 with Ruxolitinib (0.08 µM); 1.1 in the experiment with Ruxolitinib (0.253 µM). Also, the relative viability in the experiment with Ruxolitinib (0.8 µM) was 1.08; with Ruxolitinib (2.53 µM) it was 0.946; in the experiment with Ruxolitinib (8 µM) it was 0.848; with Vismodegib + Dasatinib (first compound 0.08 µM) it was 0.313; with Vismodegib + Dasatinib (first compound 0.253 µM) it was 0.372; in the experiment with Vismodegib + Dasatinib (first compound 0.8 µM), 0.402. Moreover, the relative viability stood at 0.328 in the experiment with Vismodegib + Dasatinib (first compound 2.53 µM) and 0.377 with Vismodegib + Dasatinib (first compound 8 µM).

NCI-H1563: the relative viability with VE-821 (0.08 µM) was 1.01; with VE-821 (0.253 µM) it was 0.985; with VE-821 (0.8 µM) it was 0.81; with VE-821 (2.53 µM) it was 0.886; with VE-821 (8 µM) it was 0.762; with Vismodegib (0.08 µM) it was 0.944. In addition, the relative viability with Vismodegib (0.253 µM) turned out to be 0.931; with Vismodegib (0.8 µM), 0.954; with Vismodegib (2.53 µM) it was 1.04; in the experiment with Vismodegib (8 µM), 1.02; with Ruxolitinib (0.08 µM), 0.985; in the experiment with Ruxolitinib (0.253 µM), 0.99. Further, the relative viability with Ruxolitinib (0.8 µM) was 1.02; with Ruxolitinib (2.53 µM), 0.853; in the experiment with Ruxolitinib (8 µM), 0.879; in the experiment with Vismodegib + Dasatinib (first compound 0.08 µM), 0.455; with Vismodegib + Dasatinib (first compound 0.253 µM), 0.443; in the experiment with Vismodegib + Dasatinib (first compound 0.8 µM) it was 0.477. Also, the relative viability was 0.495 with Vismodegib + Dasatinib (first compound 2.53 µM) and 0.454 with Vismodegib + Dasatinib (first compound 8 µM).

For NCI-H1623, the relative viability with VE-821 (0.08 µM) was 1.06; with VE-821 (0.253 µM), 0.987; in the experiment with VE-821 (0.8 µM), 0.84; with VE-821 (2.53 µM), 1.01; with VE-821 (8 µM), 0.809; with Vismodegib (0.08 µM) it was 0.943. Moreover, the relative viability with Vismodegib (0.253 µM) came out at 1.01; in the experiment with Vismodegib (0.8 µM) it was 1.06; with Vismodegib (2.53 µM) it was 0.978; in the experiment with Vismodegib (8 µM), 1.01; in the experiment with Ruxolitinib (0.08 µM) it was 0.942; in the experiment with Ruxolitinib (0.253 µM), 0.936. Also, the relative viability in the experiment with Ruxolitinib (0.8 µM) stood at 1.14; with Ruxolitinib (2.53 µM), 1.14; with Ruxolitinib (8 µM), 1.28; in the experiment with Vismodegib + Dasatinib (first compound 0.08 µM), 0.48; with Vismodegib + Dasatinib (first compound 0.253 µM) it was 0.565; in the experiment with Vismodegib + Dasatinib (first compound 0.8 µM), 0.557. Besides, the relative viability in the experiment with Vismodegib + Dasatinib (first compound 2.53 µM) was 0.51; with Vismodegib + Dasatinib (first compound 8 µM), 0.462.

Consider NCI-H1650, for which the relative viability stood at 0.934 in the experiment with VE-821 (0.08 µM); 0.841 in the experiment with VE-821 (0.253 µM); 0.911 with VE-821 (0.8 µM); 0.802 with VE-821 (2.53 µM); 0.465 with VE-821 (8 µM); 0.934 in the experiment with Vismodegib (0.08 µM). In addition, the relative viability stood at 0.813 with Vismodegib (0.253 µM); 0.877 in the experiment with Vismodegib (0.8 µM); 0.864 in the experiment with Vismodegib (2.53 µM); 0.941 with Vismodegib (8 µM); 0.958 with Ruxolitinib (0.253 µM); 1.29 with Ruxolitinib (0.8 µM). Also, the relative viability with Ruxolitinib (2.53 µM) was found to be 0.812; with Ruxolitinib (8 µM), 0.787; with Vismodegib + Dasatinib (first compound 0.08 µM) it was 0.276; with Vismodegib + Dasatinib (first compound 0.253 µM), 0.347; with Vismodegib + Dasatinib (first compound 0.8 µM), 0.339; in the experiment with Vismodegib + Dasatinib (first compound 2.53 µM), 0.258. Further, the relative viability with Vismodegib + Dasatinib (first compound 8 µM) stood at 0.291.

In the case of NCI-H1651, the relative viability was found to be 0.976 with VE-821 (0.08 µM); 0.954 with VE-821 (0.253 µM); 0.922 with VE-821 (0.8 µM); 0.977 in the experiment with VE-821 (2.53 µM); 0.969 with VE-821 (8 µM); 0.945 in the experiment with Vismodegib (0.08 µM). The relative viability with Vismodegib (0.253 µM) stood at 0.976; in the experiment with Vismodegib (0.8 µM), 0.947; with Vismodegib (2.53 µM), 0.956; with Vismodegib (8 µM), 1.02; with Ruxolitinib (0.08 µM) it was 0.948; with Ruxolitinib (0.253 µM), 0.978. The relative viability is 0.971 in the experiment with Ruxolitinib (0.8 µM); 0.939 with Ruxolitinib (2.53 µM); 0.976 with Ruxolitinib (8 µM); 0.434 with Vismodegib + Dasatinib (first compound 0.08 µM); 0.446 in the experiment with Vismodegib + Dasatinib (first compound 0.253 µM); 0.388 with Vismodegib + Dasatinib (first compound 0.8 µM). Besides, the values for the relative viability with Vismodegib + Dasatinib (first compound 2.53 µM) and with Vismodegib + Dasatinib (first compound 8 µM) were 0.349 and 0.591, respectively.

On to NCI-H1666, for which the relative viability with VE-821 (0.08 µM) is 1.02; with VE-821 (0.253 µM), 0.952; with VE-821 (0.8 µM), 1.01; with VE-821 (2.53 µM), 1.1; in the experiment with VE-821 (8 µM) it was 0.853; with Vismodegib (0.08 µM), 0.931. Besides, the relative viability is 0.928 with Vismodegib (0.253 µM); 1 with Vismodegib (0.8 µM); 0.955 with Vismodegib (2.53 µM); 1.07 in the experiment with Vismodegib (8 µM); 1 with Ruxolitinib (0.08 µM); 0.987 with Ruxolitinib (0.253 µM). Besides, the relative viability with Ruxolitinib (0.8 µM) came to 1.07; with Ruxolitinib (2.53 µM), 0.884; with Ruxolitinib (8 µM) it was 1.1; in the experiment with Vismodegib + Dasatinib (first compound 0.08 µM) it was 0.73; with Vismodegib + Dasatinib (first compound 0.253 µM) it was 0.777; with Vismodegib + Dasatinib (first compound 0.8 µM), 0.816. Besides, the relative viability in the experiment with Vismodegib + Dasatinib (first compound 2.53 µM) stood at 0.841; in the experiment with Vismodegib + Dasatinib (first compound 8 µM) it was 0.734.

On to NCI-H1734, for which the relative viability is 1.07 with VE-821 (0.08 µM); 0.989 with VE-821 (0.253 µM); 0.964 with VE-821 (0.8 µM); 1.03 with VE-821 (2.53 µM); 0.656 with VE-821 (8 µM); 0.966 with Vismodegib (0.08 µM). For the same cell line, the relative viability in the experiment with Vismodegib (0.253 µM) was 0.954; in the experiment with Vismodegib (0.8 µM), 0.951; with Vismodegib (2.53 µM) it was 0.993; with Vismodegib (8 µM) it was 0.961; with Ruxolitinib (0.08 µM), 0.962; with Ruxolitinib (0.253 µM), 0.914. Moreover, the relative viability was 1.15 with Ruxolitinib (0.8 µM); 0.879 with Ruxolitinib (2.53 µM); 0.942 with Ruxolitinib (8 µM); 0.44 in the experiment with Vismodegib + Dasatinib (first compound 0.08 µM); 0.498 with Vismodegib + Dasatinib (first compound 0.253 µM); 0.482 with Vismodegib + Dasatinib (first compound 0.8 µM). Besides, the figures for the relative viability with Vismodegib + Dasatinib (first compound 2.53 µM) and with Vismodegib + Dasatinib (first compound 8 µM) were 0.446 and 0.537, respectively.
